Test results taken from paper PMC7827406, “Structure–Activity Relationship (SAR) Study of Spautin-1 to Entail the Discovery of Novel NEK4 Inhibitors” (International Journal of Molecular Sciences, 2021).
Where two headings read alike, the source gives them in different places.

What was measured:
Assay in all cases: biochemical
Design in all cases: Eurofins KinaseProfiler full panel at Km ATP, residual kinase activity (%) relative to DMSO
PDGFRα(D842V)(h) = target: T1, PDGFRα(D842V)(h) (Homo sapiens, UniProt P16234, D842V)
T1 construct: gene PDGFRA
Procedure, shortened: (§1)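 Compounds screened at 10 µM in radiometric kinase activity assays at Km ATP, reported as remaining kinase activity (%). A KINOMEscan competition-binding screen at 10 µM measured DNA-tagged kinase retained on immobilized active-site ligand by qPCR.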

DCAMKL2(h) = target: T2, DCAMKL2(h) (Homo sapiens, UniProt Q8N568)
T2 construct: gene DCLK2
T2 sequence (Q8N568 1-766): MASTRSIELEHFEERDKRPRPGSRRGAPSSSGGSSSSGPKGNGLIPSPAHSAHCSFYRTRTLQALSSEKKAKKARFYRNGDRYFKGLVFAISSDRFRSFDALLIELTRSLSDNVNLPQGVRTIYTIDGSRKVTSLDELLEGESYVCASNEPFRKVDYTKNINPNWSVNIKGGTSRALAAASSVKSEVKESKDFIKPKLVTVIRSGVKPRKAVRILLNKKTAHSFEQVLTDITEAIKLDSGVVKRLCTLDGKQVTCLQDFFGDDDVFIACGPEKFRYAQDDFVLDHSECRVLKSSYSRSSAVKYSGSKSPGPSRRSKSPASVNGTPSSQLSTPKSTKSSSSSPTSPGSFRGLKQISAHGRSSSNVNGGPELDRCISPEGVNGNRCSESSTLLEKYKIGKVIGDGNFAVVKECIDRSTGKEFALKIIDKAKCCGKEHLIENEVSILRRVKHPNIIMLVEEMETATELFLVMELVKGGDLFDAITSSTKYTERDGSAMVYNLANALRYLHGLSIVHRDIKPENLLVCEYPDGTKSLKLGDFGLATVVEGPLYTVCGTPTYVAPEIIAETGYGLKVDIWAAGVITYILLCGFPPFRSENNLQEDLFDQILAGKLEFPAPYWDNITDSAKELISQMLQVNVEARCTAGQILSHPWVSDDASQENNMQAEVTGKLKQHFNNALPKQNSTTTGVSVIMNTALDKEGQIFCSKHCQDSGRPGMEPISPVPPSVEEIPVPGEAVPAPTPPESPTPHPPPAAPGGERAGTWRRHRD
Procedure, shortened: as §1

CDK3/cyclinE(h) = CDK3/cyclinE(h) (Homo sapiens, UniProt Q00526)
Procedure, shortened: as §1

BrSK1(h) = target: T3, BrSK1(h) (Homo sapiens, UniProt Q8TDC3)
T3 sequence (Q8TDC3 1-778): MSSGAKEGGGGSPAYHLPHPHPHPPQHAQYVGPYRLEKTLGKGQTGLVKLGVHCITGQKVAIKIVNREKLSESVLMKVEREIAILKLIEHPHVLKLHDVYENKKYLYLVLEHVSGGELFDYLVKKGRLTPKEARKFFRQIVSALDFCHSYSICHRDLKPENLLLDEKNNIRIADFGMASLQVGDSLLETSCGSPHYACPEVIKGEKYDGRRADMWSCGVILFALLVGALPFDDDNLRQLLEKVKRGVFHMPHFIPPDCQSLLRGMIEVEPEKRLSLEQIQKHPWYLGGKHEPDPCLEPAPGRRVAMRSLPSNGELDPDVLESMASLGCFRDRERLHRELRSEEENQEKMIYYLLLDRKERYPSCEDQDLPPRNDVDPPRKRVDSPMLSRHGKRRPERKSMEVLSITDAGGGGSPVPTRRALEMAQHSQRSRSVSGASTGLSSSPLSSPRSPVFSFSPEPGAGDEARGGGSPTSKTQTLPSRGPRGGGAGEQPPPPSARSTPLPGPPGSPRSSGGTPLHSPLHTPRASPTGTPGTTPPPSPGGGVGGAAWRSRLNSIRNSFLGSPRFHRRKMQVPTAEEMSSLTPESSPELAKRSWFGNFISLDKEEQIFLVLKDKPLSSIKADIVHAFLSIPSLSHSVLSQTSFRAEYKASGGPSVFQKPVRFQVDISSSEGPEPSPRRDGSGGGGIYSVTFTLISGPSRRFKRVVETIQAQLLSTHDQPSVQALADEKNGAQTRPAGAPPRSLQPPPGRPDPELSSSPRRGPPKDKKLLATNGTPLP
Procedure, shortened: as §1

FGFR2(N549H)(h) = FGFR2(N549H)(h) (Homo sapiens, UniProt P21802, N549H)
Procedure, shortened: as §1

[1] = read-out: Residual activity (%) 5at
[2] = read-out: Residual activity (%) 5as
[3] = read-out: Residual activity (%) 5ay
[4] = read-out: Residual activity (%) Spautin-1 5aa

T1 sequence (P16234 whole entry D842V): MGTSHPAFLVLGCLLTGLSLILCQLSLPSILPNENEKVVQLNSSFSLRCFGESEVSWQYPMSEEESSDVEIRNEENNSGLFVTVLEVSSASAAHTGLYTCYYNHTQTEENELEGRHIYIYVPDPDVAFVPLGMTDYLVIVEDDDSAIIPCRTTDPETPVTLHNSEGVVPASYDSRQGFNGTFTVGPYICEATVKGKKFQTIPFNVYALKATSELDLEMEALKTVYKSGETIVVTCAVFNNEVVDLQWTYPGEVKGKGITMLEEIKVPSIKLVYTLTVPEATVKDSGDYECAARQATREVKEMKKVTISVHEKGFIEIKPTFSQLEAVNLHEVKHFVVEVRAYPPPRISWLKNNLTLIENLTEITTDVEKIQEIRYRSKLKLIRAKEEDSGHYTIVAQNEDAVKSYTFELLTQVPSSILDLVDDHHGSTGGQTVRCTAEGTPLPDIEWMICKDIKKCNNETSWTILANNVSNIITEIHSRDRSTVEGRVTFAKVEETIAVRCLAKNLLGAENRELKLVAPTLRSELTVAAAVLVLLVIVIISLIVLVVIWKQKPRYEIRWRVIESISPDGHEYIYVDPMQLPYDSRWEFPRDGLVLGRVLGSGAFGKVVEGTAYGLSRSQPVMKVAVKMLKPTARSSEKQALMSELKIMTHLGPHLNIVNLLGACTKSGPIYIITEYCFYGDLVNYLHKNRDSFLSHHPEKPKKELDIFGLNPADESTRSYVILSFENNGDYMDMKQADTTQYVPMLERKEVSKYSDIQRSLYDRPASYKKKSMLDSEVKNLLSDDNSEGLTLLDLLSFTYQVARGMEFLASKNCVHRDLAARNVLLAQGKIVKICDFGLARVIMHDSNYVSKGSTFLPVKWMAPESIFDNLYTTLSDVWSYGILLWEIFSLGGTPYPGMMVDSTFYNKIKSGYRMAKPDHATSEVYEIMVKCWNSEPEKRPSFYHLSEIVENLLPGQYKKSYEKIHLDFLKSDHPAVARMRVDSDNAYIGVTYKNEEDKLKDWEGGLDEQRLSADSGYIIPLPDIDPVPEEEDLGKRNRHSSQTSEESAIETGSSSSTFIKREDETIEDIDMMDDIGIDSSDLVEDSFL
Chain of CDK3/cyclinE(h) (Q00526 whole entry): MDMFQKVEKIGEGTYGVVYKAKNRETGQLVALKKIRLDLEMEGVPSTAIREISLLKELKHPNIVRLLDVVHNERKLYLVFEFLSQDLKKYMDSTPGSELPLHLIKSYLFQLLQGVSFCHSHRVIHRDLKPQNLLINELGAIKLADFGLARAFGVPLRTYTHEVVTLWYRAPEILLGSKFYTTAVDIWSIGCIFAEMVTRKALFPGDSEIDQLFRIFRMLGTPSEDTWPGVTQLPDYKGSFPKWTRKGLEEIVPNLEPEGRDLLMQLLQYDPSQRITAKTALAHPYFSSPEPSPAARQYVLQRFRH
Chain of CDK3/cyclinE(h) (P24864 whole entry partner): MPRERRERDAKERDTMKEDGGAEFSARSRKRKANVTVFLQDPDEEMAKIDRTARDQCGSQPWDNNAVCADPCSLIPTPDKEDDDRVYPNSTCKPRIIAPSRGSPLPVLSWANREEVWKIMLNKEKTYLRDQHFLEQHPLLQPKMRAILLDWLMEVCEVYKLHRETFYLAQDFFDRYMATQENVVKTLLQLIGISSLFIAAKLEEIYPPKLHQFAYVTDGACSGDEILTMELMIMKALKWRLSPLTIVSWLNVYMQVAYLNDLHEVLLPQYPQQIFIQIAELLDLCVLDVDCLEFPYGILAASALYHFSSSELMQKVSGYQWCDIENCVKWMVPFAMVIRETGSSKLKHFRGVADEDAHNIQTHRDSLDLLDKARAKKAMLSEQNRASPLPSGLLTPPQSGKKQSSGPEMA
Chain of FGFR2(N549H)(h) (P21802 whole entry N549H): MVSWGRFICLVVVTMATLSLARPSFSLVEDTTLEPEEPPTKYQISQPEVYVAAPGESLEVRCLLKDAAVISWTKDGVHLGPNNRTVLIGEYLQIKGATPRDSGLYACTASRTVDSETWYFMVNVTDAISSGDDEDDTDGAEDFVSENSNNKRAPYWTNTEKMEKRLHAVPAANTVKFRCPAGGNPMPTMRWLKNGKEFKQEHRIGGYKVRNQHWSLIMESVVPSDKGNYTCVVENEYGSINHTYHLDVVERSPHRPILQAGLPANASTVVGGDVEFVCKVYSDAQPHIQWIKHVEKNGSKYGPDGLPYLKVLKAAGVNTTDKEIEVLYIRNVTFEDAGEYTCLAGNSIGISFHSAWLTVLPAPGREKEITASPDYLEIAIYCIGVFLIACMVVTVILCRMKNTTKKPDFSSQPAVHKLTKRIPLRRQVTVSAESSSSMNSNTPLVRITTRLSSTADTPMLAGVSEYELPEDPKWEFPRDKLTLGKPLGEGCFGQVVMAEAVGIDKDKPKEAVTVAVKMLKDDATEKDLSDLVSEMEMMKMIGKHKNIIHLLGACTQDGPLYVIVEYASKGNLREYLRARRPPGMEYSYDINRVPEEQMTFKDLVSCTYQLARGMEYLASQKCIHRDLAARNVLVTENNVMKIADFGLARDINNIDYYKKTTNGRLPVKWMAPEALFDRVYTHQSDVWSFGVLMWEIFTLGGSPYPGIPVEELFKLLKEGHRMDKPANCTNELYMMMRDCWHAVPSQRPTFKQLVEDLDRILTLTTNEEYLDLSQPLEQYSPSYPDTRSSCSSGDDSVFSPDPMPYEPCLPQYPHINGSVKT

Fc1ccc2ncnc(NCCc3ccc(Cl)cc3)c2c1 [5at, N-[2-(4-Chlorophenyl)Ethyl]-6-Fluoro-4-Quinazolinamine]
remaining activity at 10 µM (PDGFRα(D842V)(h); [1]): 86%
remaining activity at 10 µM (DCAMKL2(h); [1]): 57%
remaining activity at 10 µM (CDK3/cyclinE(h); [1]): 107%
remaining activity at 10 µM (BrSK1(h); [1]): 112%
remaining activity at 10 µM (FGFR2(N549H)(h); [1]): 68%

Fc1ccc(CCNc2ncnc3ccc(F)cc23)cc1 [5as, 6-Fluoro-N-[2-(4-Fluorophenyl)Ethyl]-4-Quinazolinamine]
remaining activity at 10 µM (PDGFRα(D842V)(h); [2]): 92%
remaining activity at 10 µM (DCAMKL2(h); [2]): 64%
remaining activity at 10 µM (CDK3/cyclinE(h); [2]): 105%
remaining activity at 10 µM (BrSK1(h); [2]): 89%
remaining activity at 10 µM (FGFR2(N549H)(h); [2]): 80%

COc1ccc2ncnc(Nc3cccc(F)c3)c2c1 [5ay, N-(3-Fluorophenyl)-6-Methoxy-4-Quinazolinamine]
remaining activity at 10 µM (PDGFRα(D842V)(h); [3]): 50%
remaining activity at 10 µM (DCAMKL2(h); [3]): 80%
remaining activity at 10 µM (CDK3/cyclinE(h); [3]): 101%
remaining activity at 10 µM (BrSK1(h); [3]): 30%
remaining activity at 10 µM (FGFR2(N549H)(h); [3]): 66%

Fc1ccc(CNc2ncnc3ccc(F)cc23)cc1 [5aa, 6-Fluoro-N-(4-fluorobenzyl)-4-Quinazolinamine]
remaining activity at 10 µM (PDGFRα(D842V)(h); [4]): 114%
remaining activity at 10 µM (DCAMKL2(h); [4]): 81%
remaining activity at 10 µM (CDK3/cyclinE(h); [4]): 93%
remaining activity at 10 µM (BrSK1(h); [4]): 85%
remaining activity at 10 µM (FGFR2(N549H)(h); [4]): 72%
